Patent US11053253B2, “Macrocyclic compounds for treatment of medical disorders” (Achillion Pharmaceuticals, Inc., priority 2017, dated 2021)

Biological target: Human Factor D (Homo sapiens (Human), UniProt P00746)
Assay: Human Factor D Assay
Assay type: biochemical
Details: Human Factor D 80 nM, substrate Z-L-Lys-SBzl, DTNB, A405; read-out: IC50 (Stars)
How it was run: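 Serum-purified enzyme (80 nM final) was preincubated with compound 5 min at room temperature in 50 mM Tris, 1M NaCl, pH 7.5. Z-L-Lys-SBzl and DTNB ([…] each, final) were added and A405 followed every 30 s for 30 min; IC50 from nonlinear regression of reaction rates.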

Sequence of Human Factor D (P00746 26-253): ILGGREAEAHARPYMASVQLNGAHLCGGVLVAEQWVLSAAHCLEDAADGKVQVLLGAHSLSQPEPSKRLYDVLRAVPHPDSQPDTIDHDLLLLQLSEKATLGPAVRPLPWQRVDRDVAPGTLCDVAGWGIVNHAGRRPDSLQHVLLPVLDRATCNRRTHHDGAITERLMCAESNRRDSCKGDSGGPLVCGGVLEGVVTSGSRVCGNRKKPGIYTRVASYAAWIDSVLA

Compound | IC50
CC(=O)c1nn2c3c(cc(-c4cnc(C)nc4)cc13)CCCCCCC(=O)N(C)C[C@@]13C[C@@H](C(=O)Nc4ccn(CC(F)(F)F)n4)N(C(=O)C2)[C@@H]1C3 [Compound T-203] | < 1000 nM
CC(=O)c1nn2c3c(cc(-c4cnc(C)nc4)cc13)CC=CCCCC(=O)N(C)C[C@@]13C[C@@H](C(=O)Nc4ccn(CC(F)(F)F)n4)N(C(=O)C2)[C@@H]1C3 [Compound T-204] | < 1000 nM
CC(=O)c1nn2c3c(cc(-c4cnc(C)nc4)cc13)CCCCC[C@@H](C)C(=O)N(C)C[C@@]13C[C@@H](C(=O)Nc4nc(C(F)(F)F)ccc4C)N(C(=O)C2)[C@@H]1C3 [Compound T-205] | < 1000 nM
CC(=O)c1nn2c3c(cc(-c4cnc(C)nc4)cc13)CCCCCCC(=O)NC[C@@]13C[C@@H](C(=O)N[C@@H](C)COC(F)(F)F)N(C(=O)C2)[C@@H]1C3 [Compound T-206] | < 1000 nM
CC(=O)c1nn2c3c(cc(-c4cnc(C)nc4)cc13)CCCCCCC(=O)NC[C@@]13C[C@@H](C(=O)N[C@H](C)COC(F)(F)F)N(C(=O)C2)[C@@H]1C3 [Compound T-207] | < 1000 nM
CC(=O)c1nn2c3c(cc(-c4cnc(C)nc4)cc13)CCCCCCC(=O)NC[C@@]13C[C@@H](C(=O)NCCOC(F)(F)F)N(C(=O)C2)[C@@H]1C3 [Compound T-208] | < 1000 nM
COc1cc(Br)nc(NC(=O)[C@@H]2C[C@]34CNC(=O)CCCC=CCc5cc(-c6cnc(C)nc6)cc6c(C(C)=O)nn(c56)CC(=O)N2[C@@H]3C4)c1 [Compound T-209] | < 1000 nM
COc1cc(Br)nc(NC(=O)[C@@H]2C[C@]34CNC(=O)CCCCCCc5cc(-c6cnc(C)nc6)cc6c(C(C)=O)nn(c56)CC(=O)N2[C@@H]3C4)c1 [Compound T-210] | < 1000 nM
CC(=O)c1nn2c3c(cc(-c4cnc(C)nc4)cc13)CC=CCCCC(=O)NC[C@@]13C[C@@H](C(=O)Nc4nc(Br)ccc4C4CC4)N(C(=O)C2)[C@@H]1C3 [Compound T-211] | < 1000 nM
CC(=O)c1nn2c3c(cc(-c4cnc(C)nc4)cc13)CCCCCCC(=O)NC[C@@]13C[C@@H](C(=O)Nc4nc(Br)ccc4C4CC4)N(C(=O)C2)[C@@H]1C3 [Compound T-212] | < 1000 nM
CC(=O)c1nn2c3c(cc(-c4cnc(C)nc4)cc13)CCCCCCC(=O)NC[C@@]13C[C@@H](C(=O)Nc4ccc(F)c(Br)n4)N(C(=O)C2)[C@@H]1C3 [Compound T-213] | < 1000 nM
CC(=O)c1nn2c3c(cc(-c4cnc(C)nc4)cc13)CC=CCCCC(=O)NC[C@@]13C[C@@H](C(=O)Nc4ccc(F)c(Br)n4)N(C(=O)C2)[C@@H]1C3 [Compound T-214] | < 1000 nM
CC(=O)c1nn2c3c(cc(-c4cnc(C)nc4)cc13)CC=CCCCC(=O)NC[C@@]13C[C@@H](C(=O)Nc4cc(C)c(F)c(Br)n4)N(C(=O)C2)[C@@H]1C3 [Compound T-217] | < 1000 nM
CC(=O)c1nn2c3c(cc(-c4cnc(C)nc4)cc13)CCCCCCC(=O)NC[C@@]13C[C@@H](C(=O)Nc4cc(C)c(F)c(Br)n4)N(C(=O)C2)[C@@H]1C3 [Compound T-218] | < 1000 nM
CC(=O)c1nn2c3c(cc(-c4cnc(C)nc4)cc13)CC=CCCCC(=O)NC[C@@]13C[C@@H](C(=O)Nc4nc(C(F)(F)F)ccc4C)N(C(=O)C2)[C@@H]1C3 [Compound T-219] | < 1000 nM
CC(=O)c1nn2c3c(cc(-c4cnc(C)nc4)cc13)CCCCCCC(=O)NC[C@@]13C[C@@H](C(=O)Nc4nc(C(F)(F)F)ccc4C)N(C(=O)C2)[C@@H]1C3 [Compound T-220] | < 1000 nM
CC(=O)c1nn2c3c(cc(-c4cnc(C)nc4)cc13)CCCCCCC(=O)NC[C@@]13C[C@@H](C(=O)Nc4nc(C#N)ccc4C)N(C(=O)C2)[C@@H]1C3 [Compound T-221] | < 1000 nM
CC(=O)c1nn2c3c(cc(-c4cnc(C)nc4)cc13)CCCCCCC(=O)NC[C@@]13C[C@@H](C(=O)Nc4cccc(-c5cc(F)c(F)cc5Cl)c4F)N(C(=O)C2)[C@@H]1C3 [Compound T-222] | < 1000 nM
CC(=O)c1nn2c3c(cc(-c4cnc(C)nc4)cc13)CCCCCCC(=O)NC[C@@]13C[C@@H](C(=O)Nc4cccc(OC(F)(F)F)c4F)N(C(=O)C2)[C@@H]1C3 [Compound T-223] | < 1000 nM
CC(=O)c1nn(CC(=O)N2[C@H]3C[C@@]4(CNC(=O)C(C)(C)C=CCOCc5ccc(C(F)(F)F)nc5NC3=O)C[C@@H]24)c2cnc(-c3cnc(C)nc3)cc12 [Compound T-224] | < 1000 nM
CC(=O)c1nn(CC(=O)N2[C@H]3C[C@@]4(CNC(=O)C(C)(C)CCCOCc5ccc(C(F)(F)F)nc5NC3=O)C[C@@H]24)c2cnc(-c3cnc(C)nc3)cc12 [Compound T-225] | < 1000 nM
CC(=O)c1nn2c3c(cc(-c4cnc(C)nc4)cc13)CCCCCCC(=O)NC[C@@]13C[C@@H](C(=O)N[C@@H](C)CC(C)(C)C)N(C(=O)C2)[C@@H]1C3 [Compound T-226] | < 1000 nM
CC(=O)c1nn2c3c(cc(-c4cnc(C)nc4)cc13)CCCCCCC(=O)NC[C@@]13CC(C(=O)N[C@H](C)c4cccc(Cl)c4F)N(C(=O)C2)[C@@H]1C3 (stereo partly drawn) [Compound T-227] | < 1000 nM

Compound | IC50
COc1cc(NC(=O)[C@@H]2C[C@]34CNC(=O)CCCCCCc5cc(-c6cnc(C)nc6)cc6c(C(C)=O)nn(c56)CC(=O)N2[C@@H]3C4)nc(Br)c1F [Compound T-228] | < 1000 nM
COc1cc(NC(=O)[C@@H]2C[C@]34CNC(=O)CCCC=CCc5cc(-c6cnc(C)nc6)cc6c(C(C)=O)nn(c56)CC(=O)N2[C@@H]3C4)nc(Br)c1F [Compound T-229] | < 1000 nM
CC(=O)c1nn2c3c(cc(-c4cnc(C)nc4)cc13)CCCCCCC(=O)NC[C@@]13C[C@@H](C(=O)Nc4cc(Br)ccc4F)N(C(=O)C2)[C@@H]1C3 [Compound T-230] | < 1000 nM
CC(=O)c1nn2c3c(cc(-c4cnc(C)nc4)cc13)CCCCCCC(=O)NC[C@@]13C[C@@H](C(=O)N[C@H](C)CC(C)(C)C)N(C(=O)C2)[C@@H]1C3 [Compound T-231] | < 1000 nM
CC(=O)c1nn2c3c(cc(-c4cnc(C)nc4)cc13)CCCCCCC(=O)NC[C@@]13C[C@@H](C(=O)N[C@@H](C)c4cccc(Cl)c4F)N(C(=O)C2)[C@@H]1C3 [Compound T-232] | < 1000 nM
CC(=O)c1nn2c3c(cc(-c4cnc(C)nc4)cc13)CC=CCCCC(=O)NC[C@@]13C[C@@H](C(=O)Nc4cncc(Br)n4)N(C(=O)C2)[C@@H]1C3 [Compound T-233] | < 1000 nM
CC(=O)c1nn2c3c(cc(-c4cnc(C)nc4)cc13)CCCCCCC(=O)NC[C@@]13C[C@@H](C(=O)Nc4cncc(Br)n4)N(C(=O)C2)[C@@H]1C3 [Compound T-234] | < 1000 nM
CC(=O)c1nn(CC(=O)N2[C@H]3C[C@@]4(CNC(=O)C(C)(C)C=CCOCc5ccc(C(F)(F)F)nc5NC3=O)C[C@@H]24)c2ccc(-c3cnc(C)nc3)cc12 [Compound T-235] | < 1000 nM
CC(=O)c1nn(CC(=O)N2[C@H]3C[C@@]4(CNC(=O)C(C)(C)CCCOCc5ccc(C(F)(F)F)nc5NC3=O)C[C@@H]24)c2ccc(-c3cnc(C)nc3)cc12 [Compound T-236] | < 1000 nM
CC(=O)c1nn2c3c(cc(-c4cnc(C)nc4)cc13)CCCCNC(=O)NC[C@@]13C[C@@H](C(=O)Nc4nc(C(F)(F)F)ccc4C)N(C(=O)C2)[C@@H]1C3 [Compound T-237] | < 1000 nM
CC(=O)c1nn2c3c(cc(-c4cnc(C)nc4)cc13)CCCCCNC(=O)NC[C@@]13C[C@@H](C(=O)Nc4nc(C(F)(F)F)ccc4C)N(C(=O)C2)[C@@H]1C3 [Compound T-238] | < 1000 nM
CC(=O)c1nn(CC(=O)N2C[C@@]3(F)COCCCCCCCCc4ccc(Br)nc4NC(=O)[C@@H]2C3)c2cnc(-c3cnc(C)nc3)cc12 [Compound T-239] | < 1000 nM
COCc1ccc(Br)nc1NC(=O)[C@@H]1C[C@]23CNC(=O)CCCC=CCc4cc(-c5cnc(C)nc5)cc5c(C(C)=O)nn(c45)CC(=O)N1[C@@H]2C3 [Compound T-240] | < 1000 nM
COCc1ccc(Br)nc1NC(=O)[C@@H]1C[C@]23CNC(=O)CCCCCCc4cc(-c5cnc(C)nc5)cc5c(C(C)=O)nn(c45)CC(=O)N1[C@@H]2C3 [Compound T-241] | < 1000 nM
CC(=O)c1nn2c3c(cc(-c4cnc(C5CC5)nc4)cc13)CCCCCCC(=O)NC[C@@]13C[C@@H](C(=O)Nc4nc(C(F)(F)F)ccc4C)N(C(=O)C2)[C@@H]1C3 [Compound T-242] | < 1000 nM
CC(=O)c1nn2c3c(cc(-c4cnc(C)nc4)cc13)CC=CCC[C@H](C)C(=O)N(C)C[C@@]13C[C@@H](C(=O)Nc4nc(C(F)(F)F)ccc4C)N(C(=O)C2)[C@@H]1C3 [Compound T-243] | < 1000 nM
CC(=O)c1nn2c3c(cc(-c4cnc(C)nc4)cc13)CCCCC[C@H](C)C(=O)N(C)C[C@@]13C[C@@H](C(=O)Nc4nc(C(F)(F)F)ccc4C)N(C(=O)C2)[C@@H]1C3 [Compound T-244] | < 1000 nM
CC(=O)c1nn2c3c(cc(-c4cnc5ccnn5c4)cc13)CCCCCCC(=O)NC[C@@]13C[C@@H](C(=O)Nc4nc(C(F)(F)F)ccc4C)N(C(=O)C2)[C@@H]1C3 [Compound T-255] | < 1000 nM
CC(=O)c1nn2c3c(cc(-c4cnc5cc(C)nn5c4)cc13)CCCCCCC(=O)NC[C@@]13C[C@@H](C(=O)Nc4nc(C(F)(F)F)ccc4C)N(C(=O)C2)[C@@H]1C3 [Compound T-256] | < 1000 nM
CC(=O)c1nn2c3c(cc(-c4ccc5nc(C)nn5c4)cc13)CCCCCCC(=O)NC[C@@]13C[C@@H](C(=O)Nc4nc(C(F)(F)F)ccc4C)N(C(=O)C2)[C@@H]1C3 [Compound T-257] | < 1000 nM
CC(=O)c1nn2c3c(cc(-c4cnc5cc(C6CC6)nn5c4)cc13)CCCCCCC(=O)NC[C@@]13C[C@@H](C(=O)Nc4nc(C(F)(F)F)ccc4C)N(C(=O)C2)[C@@H]1C3 [Compound T-258] | < 1000 nM
(41R,43S,45R)-42-(2-(3-acetyl-5-(2- methylpyrimidin-5-yl)-1H-indazol-1- yl)acetyl)-16-bromo-6-methyl-7-thia-42,6- diaza-1(2,3)-pyridina-4(3,5)- bicyclo[3.1.0]hexanacycloundecaphan-10- en-3-one 7,7-dioxide [Compound T-17] | < 1000 nM
